# In patent publication US8785614B2, “Aberrantly methylated genes in pancreatic cancer” (The Johns Hopkins University, priority 2003, dated 2014):
# Where two headings read alike, the source gives them in different places.
# Experiments:
# [1] = system: four pancreatic cancer cell lines (AsPC1, Hs766T, MiaPaCa2, Panc1); assay type: cell-based, human
# Source text: (§1) These include a large panel of novel targets for silencing by histone deacetylation including several known tumor suppressor genes or cell cycle-regulatory genes (ING1, p57KIP2, CHES1, CHFR, GADD45B, and others).
# [2] = system: Panc1 pancreatic cancer cell line; assay: Oligonucleotide microarray gene expression after TSA (1 μM, 24 h) vs mock; assay type: cell-based, human
# Source text: as §1
smiles,measurement,setting,value
"CC(/C=C/C(=O)NO)=C\[C@@H](C)C(=O)c1ccc(N(C)C)cc1 [TSA, trichostatin A]",Induced by TSA alone?,[1]; TNF,No
same,number of the 11 genes with aberrantly methylated CpG islands whose expression was induced,[1]; TSA alone,4 genes
same,Induced by TSA alone?,[1]; UCHL1,Yes
same,Induced by TSA alone?,[1]; UCHL1 (Table 3),Yes
same,Induced by TSA alone?,[1]; WISP2,No
same,Induced by TSA alone?,[1]; WIT-1,No
same,Induced by TSA alone?,[1]; WNT7A,Yes
same,Induced by TSA alone?,[1]; XAGE-1,Yes
same,Induced by TSA alone?,[1]; XAGE-1 (Table 3),Yes
same,Induced by TSA alone?,[1]; activity-regulated cytoskeleton-associated protein (APC),Yes
same,Induced by TSA alone?,[1]; aik3,Yes
same,Induced by TSA alone?,[1]; basic fibroblast growth factor (FGF),Yes
same,Induced by TSA alone?,"[1]; cytovillin 2 (VIL2, ezrin)",No
same,Induced by TSA alone?,[1]; granulocytemacrophage colony-stimulating factor (M11734),Yes
same,Induced by TSA alone?,"[1]; interferon, alpha-inducible protein (NM_022873)",Yes
same,Induced by TSA alone?,[1]; junction adhesion molecule (AF154005),Yes
same,Induced by TSA alone?,[1]; matrix metalloproteinase 8 (MMP3),No
same,Induced by TSA alone?,[1]; nucleotide-binding site protein 1 (AF298547),Yes
same,Induced by TSA alone?,[1]; p53-induced protein (PIGII),No
same,Induced by TSA alone?,[1]; reprimo,No
same,Induced by TSA alone?,[1]; stratifin (14-3-3 sigma),Yes
same,Induced by TSA alone?,[1]; stromal antigen 3 (STAG5),Yes
same,Induced by TSA alone?,"[1]; synovial sarcoma, X breakpoint 2 (AF257500)",Yes
same,Induced by TSA alone?,[1]; testin,Yes
same,Induced by TSA alone?,[1]; transketolase-like protein (X91817),Yes
same,Fold-change after TSA treatment,"[2]; ADM, Panc1",3.22 fold
same,Fold-change after TSA treatment,"[2]; ANGPT1, Panc1",−1.13 fold
same,Fold-change after TSA treatment,"[2]; AREG, Panc1",4.2 fold
same,Fold-change after TSA treatment,"[2]; ATF3, Panc1",2.74 fold
same,Fold-change after TSA treatment,"[2]; BIK, Panc1",5.02 fold
same,Fold-change after TSA treatment,"[2]; CACNA1G, Panc1",10.14 fold
same,Fold-change after TSA treatment,"[2]; CAPN5, Panc1",5.41 fold
same,Fold-change after TSA treatment,"[2]; CDH8, Panc1",6.85 fold
same,Fold-change after TSA treatment,"[2]; CDKN1C, Panc1",6.26 fold
same,Fold-change after TSA treatment,"[2]; CGR11, Panc1",11.66 fold
same,Fold-change after TSA treatment,"[2]; CHES1, Panc1",9.31 fold
same,Fold-change after TSA treatment,"[2]; CHFR, Panc1",−1.33 fold
same,Fold-change after TSA treatment,"[2]; CLDN15, Panc1",8.69 fold
same,Fold-change after TSA treatment,"[2]; EDR1, Panc1",−2.06 fold
same,Fold-change after TSA treatment,"[2]; EGR4, Panc1",6.44 fold
same,Fold-change after TSA treatment,"[2]; EREG, Panc1",−1.37 fold
same,Fold-change after TSA treatment,"[2]; GADD45B, Panc1",−1.09 fold
same,Fold-change after TSA treatment,"[2]; GAGE1, Panc1",0.63 fold
same,Fold-change after TSA treatment,"[2]; GAGE2, Panc1",1.4 fold
same,Fold-change after TSA treatment,"[2]; GAGE3, Panc1",1.07 fold
same,Fold-change after TSA treatment,"[2]; GAGE4, Panc1",2.29 fold
same,Fold-change after TSA treatment,"[2]; GAGE6, Panc1",1.62 fold
same,Fold-change after TSA treatment,"[2]; GAGE7B, Panc1",3.56 fold
same,Fold-change after TSA treatment,"[2]; HEP27, Panc1",31.64 fold
same,Fold-change after TSA treatment,"[2]; HMOX1, Panc1",1.21 fold
same,Fold-change after TSA treatment,"[2]; HPSE, Panc1",3.03 fold
same,Fold-change after TSA treatment,"[2]; ID2, Panc1",21.22 fold
same,Fold-change after TSA treatment,"[2]; ING1, Panc1",1.5 fold
same,Fold-change after TSA treatment,"[2]; KLK12, Panc1",2.13 fold
same,Fold-change after TSA treatment,"[2]; MAGE1, Panc1",15.48 fold
same,Fold-change after TSA treatment,"[2]; MBD1, Panc1",−1.82 fold
same,Fold-change after TSA treatment,"[2]; MMP1, Panc1",−2.63 fold
same,Fold-change after TSA treatment,"[2]; NGFR, Panc1",30.7 fold
same,Fold-change after TSA treatment,"[2]; NOTCH3, Panc1",3.9 fold
same,Fold-change after TSA treatment,"[2]; P-glycoprotein (mdr1), Panc1",3.69 fold
same,transcripts with marked induction,[2]; Panc1,459 transcripts
same,"transcripts with marked induction, share of transcripts analyzed",[2]; Panc1 (printed Panel),2.5%
same,Fold-change after TSA treatment,"[2]; SPANXA1, Panc1",6.45 fold
same,Fold-change after TSA treatment,"[2]; STC1, Panc1",5.63 fold
same,Fold-change after TSA treatment,"[2]; UCPH, Panc1",2.05 fold
same,Fold-change after TSA treatment,"[2]; ULBP2, Panc1",18.25 fold
same,Fold-change after TSA treatment,"[2]; WNT4, Panc1",5.13 fold
same,Fold-change after TSA treatment,"[2]; candidate tumor suppressor gene 21 protein (AF040708), Panc1",1.01 fold
same,Fold-change after TSA treatment,"[2]; connective tissue growth factor (M92934), Panc1",7.69 fold
same,Fold-change after TSA treatment,"[2]; hemoglobin, alpha 1 (HBAI), Panc1",4.55 fold
same,Fold-change after TSA treatment,"[2]; interleukin 8, Panc1",3.01 fold
same,Fold-change after TSA treatment,"[2]; member 2 (BC002649), Panc1",5.04 fold
same,Fold-change after TSA treatment,"[2]; period homolog 1 (PERI), Panc1",−3.83 fold
same,Fold-change after TSA treatment,"[2]; prostate differentiation factor (AF003934), Panc1",4.05 fold
same,Fold-change after TSA treatment,"[2]; protease inhibitor 12 (neuroserpin) (SERPINU), Panc1",11.7 fold
same,Fold-change after TSA treatment,"[2]; synovial sarcoma, X breakpoint 1 (BC001003), Panc1",2.73 fold
same,Fold-change after TSA treatment,"[2]; tissue factor pathway inhibitor-2 (L27624), Panc1",34.65 fold
